Where a SMILES comes first, the peptide text is derived from it. Bridges are numbered along the chain shown (N, C = ends). [ ]: non-standard residue; d: D form. Phe(4-Cl) = N[C@@H](Cc1ccc(Cl)cc1)C(=O)O; dNMeW = CN[C@H](Cc1c[nH]c2ccccc12)C(=O)O; Dip = N[C@H](C(=O)O)C(c1ccccc1)c1ccccc1; 2Nal = N[C@@H](Cc1ccc2ccccc2c1)C(=O)O; NMeT = CN[C@H](C(=O)O)[C@@H](C)O; 3Pal = N[C@@H](Cc1cccnc1)C(=O)O; NMeK = CN[C@@H](CCCCN)C(=O)O; NMeC = CN[C@@H](CS)C(=O)O; dNMeC = CN[C@H](CS)C(=O)O

The target in assay [1] is T1, hsst1 (Homo sapiens, UniProt P30872).
T1 construct: each containing the entire coding region of the full-length receptors; expressed in transfected cells
T1 sequence (P30872 whole entry): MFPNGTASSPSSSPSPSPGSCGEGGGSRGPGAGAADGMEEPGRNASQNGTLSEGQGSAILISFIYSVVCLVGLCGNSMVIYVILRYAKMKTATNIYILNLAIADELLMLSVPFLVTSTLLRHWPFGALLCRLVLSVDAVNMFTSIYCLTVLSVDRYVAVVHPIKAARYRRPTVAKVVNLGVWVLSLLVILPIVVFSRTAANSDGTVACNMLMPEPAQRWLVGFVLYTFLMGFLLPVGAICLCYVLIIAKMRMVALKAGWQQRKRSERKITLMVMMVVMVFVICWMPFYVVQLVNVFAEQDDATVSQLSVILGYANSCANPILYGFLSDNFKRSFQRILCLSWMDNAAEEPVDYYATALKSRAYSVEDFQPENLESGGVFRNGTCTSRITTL
Briefly: Radioligand binding, cloned human sst1 receptor (CHO-K1 membranes). As to conditions: [125I]Tyr11-SRIF, CHO-K1 cell membranes; single values = one binding experiment; read-out: K1 ± SEM hsst1. An excerpt: (§1) The genomic clones containing the human somatostatin receptors (hsstr1-5) (Yamada, Y., et al. al., Proc. Natl. Acad. Sci. USA. 1992, 89, 251-255; Yasuda, K., et al., J. Biol. Chem. 1992, 267, 20422-20428; Yamada, Y., et al., Mol. Pharmacol. 1992, 42, 2136-2142; Rohrer, L., et al., Proc. Natl. Acad. Sci. USA. 1993, 90, 4196-4200.), were kindly provided by Dr. Graeme I. Bell (University of Chicago). The hsstr1, hsstr2, hsstr3, hsstr4 and hsstr5 cDNAs were isolated as a 1.5-kb PstI-XmnI fragment, 1.7-kb BamHI-HindIII fragment, 2.0-kb NcoI-HindIII fragment, 1.4-kb NheI-NdeI fragment, and a 1.2-kb HindIII-XbaI fragment, respectively, each containing the entire coding region of the full-length receptors. These fragments were independently subdloned into the corresponding restriction endonuclease sites in the mammalian expression vector pCMV5, downstream from the human cytomegalovirus (CMV) promoter, to produce the expression plasmids pCMV5/hsstr1, pCMV5/hsstr2, pCMV5/hsstr3, pCMV5/hsstr4 and pCMV5/hsstr5. For transfection into CHO-K1 cells, a plasmid, pRSV-neo (American Type Culture Collection, Rockville, Md.), carrying the neomycin mammalian cell selectable marker was added.
(§2) Transfections were performed by the calcium phosphate method. CHO-K1 cells are maintained in α-minimum essential medium (α-MEM; Gibco) supplemented with 10% fetal calf serum and transfected with each of the expression plasmids using calcium phosphate precipitation. Clones that had inherited the expression plasmid were selected in α-MEM supplemented with 500 μg mL^−1 of geneticin (G418; Gibco). Independent CHO-K1 clones were picked by glass-ring cloning and expanded in culture in the selective media. Membranes were prepared from the isolated clones and hsstr expression was initially assessed for binding with [^125I]Tyr^11-SRIF and [^125]IMK-678 (for sstr2).
(§3) Cell membranes of the 5 receptor types were obtained from homogenates (Polytron setting 6, 15 sec) of the corresponding CHO-K1 cells, in ice-cold Tris-HCl (50 mM) and centrifuged (39000 g, 10 min×2), with an intermediate resuspension in fresh buffer. The final pellets are resuspended in Tris-HCl (10 mM) for assay. Aliquots of the membranes are incubated (30 min at 37° C.) with 0.05 nM [^125I]Tyr^11-SRIF (types 1,3,4,5) or [^125I]MK-678 (type 2) in 50 mM HEPES (pH 7.4) containing BSA (10 mg mL^−1); MgCl2 (5 mM), Trasylol (200 kIU mL^−1), bacitracin (0.02 mg mL^−1), and phenylmethanesulfonyl fluoride (0.02 mg mL^−1). The final assay volume is 0.3 mL and incubations are terminated by rapid filtration through GF/C filters pre-soaked in 0.3% poly(ethylenimine) using a Brandel rapid filtration module. Each tube and filter is then washed with aliquots of cold buffer (3×5 mL).
(§4) Specific binding is. defined as the total radioligand bound minus that bound in the presence of 1.0 μM SRIF.

For assay [2], the target named is T2, hsst3 (Homo sapiens, UniProt P32745).
T2 construct: each containing the entire coding region of the full-length receptors; expressed in transfected cells
T2 sequence (P32745 whole entry): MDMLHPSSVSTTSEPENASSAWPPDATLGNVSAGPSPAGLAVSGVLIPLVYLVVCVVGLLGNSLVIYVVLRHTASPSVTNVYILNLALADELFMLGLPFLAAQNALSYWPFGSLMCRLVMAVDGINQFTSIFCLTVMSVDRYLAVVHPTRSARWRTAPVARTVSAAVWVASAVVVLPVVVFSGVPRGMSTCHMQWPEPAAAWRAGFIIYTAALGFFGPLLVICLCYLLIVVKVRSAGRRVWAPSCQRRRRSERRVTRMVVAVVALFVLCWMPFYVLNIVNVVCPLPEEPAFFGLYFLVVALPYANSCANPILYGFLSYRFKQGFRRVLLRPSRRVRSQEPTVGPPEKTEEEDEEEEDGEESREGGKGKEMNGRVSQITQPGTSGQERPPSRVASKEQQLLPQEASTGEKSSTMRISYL
Kind of assay: Radioligand binding, cloned human sst3 receptor (CHO-K1 membranes). To be noted: [125I]Tyr11-SRIF, CHO-K1 cell membranes; single values = one binding experiment; read-out: K1 ± SEM hsst3.
Source text: as §1, §2, §3, §4

Assay [3] addresses T3, hsst4 (Homo sapiens, UniProt P31391).
T3 construct: each containing the entire coding region of the full-length receptors; expressed in transfected cells
Kind of assay: Radioligand binding, cloned human sst4 receptor (CHO-K1 membranes). To be noted: [125I]Tyr11-SRIF, CHO-K1 cell membranes; single values = one binding experiment; read-out: K1 ± SEM hsst4.
Source text: as §1, §2, §3, §4

Assay [4] addresses T4, hsst2 (Homo sapiens, UniProt P30874).
T4 construct: each containing the entire coding region of the full-length receptors; expressed in transfected cells
Kind of assay: Radioligand binding, cloned human sst2 receptor (CHO-K1 membranes). To be noted: [125I]MK-678, CHO-K1 cell membranes; single values = one binding experiment; read-out: K1 ± SEM hsst2.
Source text: as §1, §2, §3, §4

For assay [5], the target named is T5, hsst5 (Homo sapiens, UniProt P35346).
T5 construct: each containing the entire coding region of the full-length receptors; expressed in transfected cells
T5 sequence (P35346 whole entry): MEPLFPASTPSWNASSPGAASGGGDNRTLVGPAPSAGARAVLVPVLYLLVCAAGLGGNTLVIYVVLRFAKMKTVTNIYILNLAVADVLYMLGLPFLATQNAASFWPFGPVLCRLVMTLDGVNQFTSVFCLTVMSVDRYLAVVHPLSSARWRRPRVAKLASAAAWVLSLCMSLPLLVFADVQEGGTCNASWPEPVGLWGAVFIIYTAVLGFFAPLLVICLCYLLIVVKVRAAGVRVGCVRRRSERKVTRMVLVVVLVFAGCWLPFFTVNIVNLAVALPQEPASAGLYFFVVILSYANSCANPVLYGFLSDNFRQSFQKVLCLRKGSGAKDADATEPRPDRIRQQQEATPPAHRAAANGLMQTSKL
Briefly: Radioligand binding, cloned human sst5 receptor (CHO-K1 membranes). As to conditions: [125I]Tyr11-SRIF, CHO-K1 cell membranes; single values = one binding experiment; read-out: K1 ± SEM hsst5.
Source text: as §1, §2, §3, §4

T3 sequence (P31391 whole entry): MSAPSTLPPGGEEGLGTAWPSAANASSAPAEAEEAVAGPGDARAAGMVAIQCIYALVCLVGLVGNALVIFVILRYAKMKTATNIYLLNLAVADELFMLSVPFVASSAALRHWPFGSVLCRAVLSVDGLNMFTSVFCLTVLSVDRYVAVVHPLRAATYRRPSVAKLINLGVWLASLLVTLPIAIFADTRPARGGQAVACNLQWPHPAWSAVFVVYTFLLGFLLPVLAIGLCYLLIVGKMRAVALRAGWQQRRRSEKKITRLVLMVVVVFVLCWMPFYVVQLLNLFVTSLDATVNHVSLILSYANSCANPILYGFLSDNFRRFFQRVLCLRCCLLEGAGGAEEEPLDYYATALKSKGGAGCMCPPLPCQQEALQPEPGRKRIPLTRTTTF
T4 sequence (P30874 whole entry): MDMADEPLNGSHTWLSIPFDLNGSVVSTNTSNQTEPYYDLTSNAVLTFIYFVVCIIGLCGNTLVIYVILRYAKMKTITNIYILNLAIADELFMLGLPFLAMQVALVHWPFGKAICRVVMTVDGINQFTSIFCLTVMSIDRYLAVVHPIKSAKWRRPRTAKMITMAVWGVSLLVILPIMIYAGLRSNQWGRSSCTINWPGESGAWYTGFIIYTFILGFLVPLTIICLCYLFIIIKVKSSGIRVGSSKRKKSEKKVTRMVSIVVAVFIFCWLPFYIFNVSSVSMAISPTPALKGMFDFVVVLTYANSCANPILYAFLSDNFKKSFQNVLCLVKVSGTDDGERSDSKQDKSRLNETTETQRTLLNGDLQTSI

For `CNC(=O)[C@H](Cc1ccc2ccccc2c1)NC(=O)[C@@H]1CSSC[C@@H](N(C)C(=O)[C@@H](N)Cc2ccc(Cl)cc2)C(=O)N[C@@H](Cc2cccnc2)C(=O)N[C@H](Cc2c[nH]c3ccccc23)C(=O)N[C@@H](CCCCN)C(=O)N[C@@H]([C@@H](C)O)C(=O)N1` [Peptide 2, Cpa-cyclo(NmeDCys-3-Pal-DTrp-Lys-Thr-Cys)-2-Nal-NHMe] (H-[Phe(4-Cl)][dNMeC][3Pal][dW]KTC[2Nal]-NHMe; disulfide 2-7), the Ki in assay [1] worked out at 1 µM; in assay [2] it was 0.576 ± 0.047 µM; in assay [3], 1 µM; in assay [4], 0.089 ± 0.008 µM; in assay [5] it was 0.106 ± 0.036 µM.

For `C[C@@H](O)[C@@H]1NC(=O)[C@H](CCCCN)NC(=O)[C@@H](Cc2c[nH]c3ccccc23)N(C)C(=O)[C@H](Cc2cccnc2)NC(=O)[C@H](NC(=O)[C@@H](N)Cc2ccc(Cl)cc2)CSSC[C@@H](C(=O)N[C@@H](Cc2ccc3ccccc3c2)C(N)=O)NC1=O` [Peptide 4, Cpa-cyclo(DCys-3-Pal-NMeDTrp-Lys-Thr-Cys)-2-Nal-NH2] (H-[Phe(4-Cl)][dC][3Pal][dNMeW]KTC[2Nal]-NH2; disulfide 2-7), the Ki in assay [2] came out at 0.39 ± 0.114 µM; in assay [4], 0.0518 ± 0.0026 µM; in assay [5], 0.093 ± 0.0177 µM.

For the compound `C[C@@H](O)[C@@H]1NC(=O)[C@H](CCCCN)N(C)C(=O)[C@@H](Cc2c[nH]c3ccccc23)NC(=O)[C@H](Cc2cccnc2)NC(=O)[C@H](NC(=O)[C@@H](N)Cc2ccc(Cl)cc2)CSSC[C@@H](C(=O)N[C@H](Cc2c[nH]c3ccccc23)C(N)=O)NC1=O` [Peptide 14, Cpa-cyclo(DCys-3-Pal-DTrp-NMeLys-Thr-Cys)-DTrp-NH2] (H-[Phe(4-Cl)][dC][3Pal][dW][NMeK]TC[dW]-NH2; disulfide 2-7), the Ki in assay [2] was determined as 0.0914 ± 0.0119 µM; in assay [4], 0.00545 ± 0.0003 µM.

`C[C@@H](O)[C@@H]1NC(=O)[C@H](CCCCN)N(C)C(=O)[C@@H](Cc2c[nH]c3ccccc23)NC(=O)[C@H](Cc2cccnc2)NC(=O)[C@H](NC(=O)[C@@H](N)Cc2ccc3ccccc3c2)CSSC[C@@H](C(=O)N[C@H](Cc2c[nH]c3ccccc23)C(N)=O)NC1=O` [Peptide 15, Nal-cyclo(DCys-3-Pal-DTrp-NMeLys-Thr-Cys)-DTrp-NH2] (H-[2Nal][dC][3Pal][dW][NMeK]TC[dW]-NH2; disulfide 2-7): the Ki in assay [1] amounted to 1 µM; in assay [3] it was 1 µM; in assay [4], 0.0273 ± 0.00145 µM; in assay [5] it was 0.176 ± 0.0651 µM.

For `C[C@@H](O)[C@@H]1NC(=O)[C@H](CCCCN)N(C)C(=O)[C@@H](Cc2c[nH]c3ccccc23)NC(=O)[C@H](Cc2cccnc2)NC(=O)[C@H](NC(=O)[C@@H](N)Cc2cccnc2)CSSC[C@@H](C(=O)N[C@H](Cc2c[nH]c3ccccc23)C(N)=O)NC1=O` [Peptide 16, 3-Pal-cyclo(DCys-3-Pal-DTrp-NMeLys-Thr-Cys)-DTrp-NH2] (H-[3Pal][dC][3Pal][dW][NMeK]TC[dW]-NH2; disulfide 2-7), the Ki in assay [2] amounted to 0.537 ± 0.0448 µM; in assay [4], 0.0247 ± 0.00161 µM; in assay [5], 0.313 ± 0.0041 µM.

Take `C[C@@H](O)[C@@H]1NC(=O)[C@H](CCCCN)N(C)C(=O)[C@@H](Cc2c[nH]c3ccccc23)NC(=O)[C@H](Cc2cccnc2)NC(=O)[C@H](NC(=O)[C@@H](N)Cc2ccc(Cl)cc2)CSSC[C@@H](C(=O)N[C@@H](Cc2ccc3ccccc3c2)C(N)=O)NC1=O` [Peptide 5, Cpa-cyclo(DCys-3-Pal-DTrp-NMeLys-Thr-Cys)-2-Nal-NH2] (H-[Phe(4-Cl)][dC][3Pal][dW][NMeK]TC[2Nal]-NH2; disulfide 2-7): the Ki in assay [2] was 0.066 ± 0.0058 µM; in assay [4], 0.0171 ± 0.0055 µM; in assay [5], 0.00598 ± 0.00091 µM.

In the case of `C[C@@H](O)[C@@H]1NC(=O)[C@H](CCCCN)NC(=O)[C@@H](Cc2c[nH]c3ccccc23)NC(=O)[C@H](Cc2cccnc2)N(C)C(=O)[C@H](NC(=O)[C@@H](N)Cc2ccc(Cl)cc2)CSSC[C@@H](C(=O)N[C@@H](Cc2ccc3ccccc3c2)C(N)=O)NC1=O` [Peptide 3, Cpa-cyclo(DCys-Nme3-Pal-DTrp-Lys-Thr-Cys)-2-Nal-NH2], the Ki in assay [2] was 0.45 ± 0.132 µM; in assay [4], 0.189 ± 0.035 µM.

In the case of `C[C@@H](O)[C@@H]1NC(=O)[C@H](CCCCN)NC(=O)[C@@H](Cc2c[nH]c3ccccc23)NC(=O)[C@H](Cc2cccnc2)NC(=O)[C@H](NC(=O)[C@@H](N)Cc2ccc(Cl)cc2)CSSC[C@@H](C(=O)N[C@@H](Cc2ccc3ccccc3c2)C(N)=O)NC1=O` [Peptide 9, Cpa-cyclo(DCys-3-Pal-DTrp-Lys-Thr-Cys)-Nal-NH2], the figures for the Ki in assay [2], in assay [3] and in assay [4] were 0.0382 ± 0.0024 µM, 1 µM and 0.0121 ± 0.0019 µM, respectively.

As to `CNC(=O)[C@@H](NC(=O)[C@@H]1CSSC[C@@H](N(C)C(=O)[C@@H](N)Cc2ccc(Cl)cc2)C(=O)N[C@@H](Cc2cccnc2)C(=O)N[C@H](Cc2c[nH]c3ccccc23)C(=O)N[C@@H](CCCCN)C(=O)N[C@@H]([C@@H](C)O)C(=O)N1)C(c1ccccc1)c1ccccc1` [Peptide 10, Cpa-cyclo(NMeDCys-3-Pal-DTrp-Lys-Thr-Cys)-Dip-NHMe] (H-[Phe(4-Cl)][dNMeC][3Pal][dW]KTC[Dip]-NHMe; disulfide 2-7), the Ki in assay [1] was 1 µM; in assay [2], 0.584 ± 0.305 µM; in assay [3] it was 1 µM; in assay [4], 0.117 ± 0.0246 µM; in assay [5] it was 0.766 ± 0.11 µM.

With `C[C@@H](O)[C@H]1C(=O)N[C@H](C(=O)N[C@@H](Cc2ccc3ccccc3c2)C(N)=O)CSSC[C@@H](NC(=O)[C@@H](N)Cc2ccc(Cl)cc2)C(=O)N[C@@H](Cc2cccnc2)C(=O)N[C@H](Cc2c[nH]c3ccccc23)C(=O)N[C@@H](CCCCN)C(=O)N1C` [Peptide 6, Cpa-cyclo(DCys-3-Pal-DTrp-Lys-NMeThr-Cys)-2-Nal-NH2] (H-[Phe(4-Cl)][dC][3Pal][dW]K[NMeT]C[2Nal]-NH2; disulfide 2-7), the Ki in assay [1] amounted to 0.395 ± 0.202 µM; in assay [2] it was 0.315 ± 0.0125 µM; in assay [3], 1 µM; in assay [4] it was 1 µM.

Regarding `C[C@@H](O)[C@@H]1NC(=O)[C@H](CCCCN)NC(=O)[C@@H](Cc2c[nH]c3ccccc23)NC(=O)[C@H](Cc2cccnc2)NC(=O)[C@H](NC(=O)[C@@H](N)Cc2ccc(Cl)cc2)CSSC[C@@H](C(=O)N[C@@H](Cc2ccc3ccccc3c2)C(N)=O)N(C)C1=O` [Peptide 7, Cpa-cyclo(DCys-3-Pal-DTrp-Lys-Thr-NmeCys)-2-Nal-NH2] (H-[Phe(4-Cl)][dC][3Pal][dW]KT[NMeC][2Nal]-NH2; disulfide 2-7), the Ki in assay [2] was found to be 0.0687 ± 0.0047 µM; in assay [3], 0.575 µM; in assay [4] it was 0.81 µM.

These data come from patent publication US7408024B2, “Somatostatin antagonists” (The Administrators of the Tulane Educational Fund, priority 2001, dated 2008).
